Source: patent publication US20110015119A1, “NOVEL SEMI-SYNTHETIC GLYCOPEPTIDES AS ANTIBACTERIAL AGENTS” (LEAD THERAPEUTICS, INC., priority 2009, published 2011)
Converted amounts (≈) assume the structure as drawn. Where two headings read alike, the source gives them in different places.

What was measured:
Assay type in all cases: cell-based
[1] = tested on: Streptococcus pneumoniae 1195 (ATCC 49619); experiment: MIC by broth microdilution, SPNE 1195; details: Streptococcus pneumoniae, ATCC49619, read-out: MIC S PNE 1195
Protocol: (§1) Antibacterial activity in vitro is investigated by broth microdilution method in Meuller-Hinton broth as recommended by NCCLS. All strains tested are clinical isolates either sensitive or resistant to natural glycopeptides. MIC values were determined using the CLSI-recommended broth microdilution procedure (Clinical and Laboratory Standards Institute, Methods for Dilution Antimicrobial Susceptibility Tests for Bacteria That Grow Aerobically; Approved Standard-Seventh Edition.). Automated liquid handlers (Multidrop 384, Labsystems, Helsinki, Finland; Biomek 2000 and Multimek 96, Beckman Coulter, Fullerton Calif.) were used to conduct serial dilutions and liquid transfers. The MIC value for vancomycin is given for comparison. The abbreviations for organisms tested are as follow: SA 100—Staphylococcus aureus 100 (ATCC 29213); SA 757—Staphylococcus aureus 757 (MRSA); SA 2012—Staphylococcus aureus 2012 (VISA); SE 835—Staphylococcus epidermidis 835; SE 831—Staphylococcus epidermidis 831 (MRSE); EFc 101—Enterococcus faecalis 101 (ATCC 29212); EFc 848—Enterococcus faecalis 848 (VRE, Van A); EFcm 800—Enterococcus faecium 800; EFcm 752—Enterococcus faecium 752 (VRE, Van A); SPNE 1195—Streptococcus pneumoniae 1195 (ATCC 49619); SPY 712—Streptococcus pyogenes 712.

[2] = tested on: Staphylococcus aureus 757 (MRSA); experiment: MIC by broth microdilution, SA 757; details: Staphylococcus aureus, MRSA, read-out: MIC SA 757
Protocol: as §1

[3] = tested on: Streptococcus pyogenes 712; experiment: MIC by broth microdilution, SPY 712; details: Streptococcus pyogenes, 712, read-out: MIC S PYO 712
Protocol: as §1

[4] = tested on: Staphylococcus epidermidis 835; experiment: MIC by broth microdilution, SE 835; details: Staphylococcus epidermidis, 835, read-out: MIC SE 835
Protocol: as §1

[5] = tested on: Enterococcus faecium 752 (VRE, Van A); experiment: MIC by broth microdilution, EFcm 752; details: Enterococcus faecium, VRE, read-out: MIC E FCM 752, Enterococcus faecium 752 (VRE, Van A)
Protocol: as §1

[6] = tested on: Staphylococcus epidermidis 831 (MRSE); experiment: MIC by broth microdilution, SE 831; details: Staphylococcus epidermidis, MRSE, read-out: MIC SE 831
Protocol: as §1

[7] = tested on: Enterococcus faecium 800; experiment: MIC by broth microdilution, EFcm 800; details: Enterococcus faecium, 800, read-out: MIC E FCM 800
Protocol: as §1

[8] = tested on: Staphylococcus aureus 2012 (VISA); experiment: MIC by broth microdilution, SA 2012; details: for MIC: Staphylococcus aureus, VISA, read-out: MIC SA 2012, Staphylococcus aureus 2012 (VISA)
Protocol: as §1

[9] = tested on: Staphylococcus aureus 100 (ATCC 29213); experiment: MIC by broth microdilution, SA 100; details: Staphylococcus aureus, ATCC29213, read-out: MIC SA 100
Protocol: as §1

[10] = tested on: Enterococcus faecalis 848 (VRE, Van A); experiment: MIC by broth microdilution, EFc 848; details: Enterococcus faecalis, VRE, read-out: MIC E FC 848, Enterococcus faecalis 848 (VRE, Van A)
Protocol: as §1

[11] = tested on: Enterococcus faecalis 101 (ATCC 29212); experiment: MIC by broth microdilution, EFc 101; details: for MIC: Enterococcus faecalis, ATCC29212, read-out: MIC E FC 101, Enterococcus faecalis 101 (ATCC 29212)
Protocol: as §1

Structure (SMILES)	MIC [1]	MIC [2]	MIC [3]	MIC [4]	MIC ([5]; class symbols)	MIC [6]	MIC [7]	MIC ([8]; class symbols)	MIC [9]	MIC ([10]; class symbols)	MIC ([11]; class symbols)	MIC ([5]; numeric, comparison)	MIC SA 2012 ([8]; Staphylococcus aureus 2012 (VISA), numeric, comparison)	MIC ([8]; numeric, comparison)	MIC ([10]; numeric, comparison)	MIC E FC 101 ([11]; Enterococcus faecalis 101 (ATCC 29212), numeric, comparison)	MIC ([11]; numeric, comparison)
CCCCCOCCNC(=O)Oc1cc(O)c2c(c1)[C@@H](C(=O)NC1C3CC4CC(C3)CC1C4)NC(=O)[C@H]1NC(=O)[C@H](NC(=O)[C@@H]3NC(=O)[C@H](CC(N)=O)NC(=O)[C@H](NC(=O)[C@@H](CC(C)C)NC)[C@H](O)c4ccc(c(Cl)c4)Oc4cc3cc(c4O[C@@H]3O[C@H](CO)[C@@H](O)[C@H](O)[C@H]3O[C@H]3C[C@](C)(N)[C@H](O)[C@H](C)O3)Oc3ccc(cc3Cl)[C@H]1O)c1ccc(O)c-2c1 (stereo partly shown) [Compound 340]	0.01 to 0.5 µg/mL (≈ 0.00575 to 0.287 µM)	0.01 to 0.5 µg/mL (≈ 0.00575 to 0.287 µM)	0.01 to 0.5 µg/mL (≈ 0.00575 to 0.287 µM)	0.01 to 0.5 µg/mL (≈ 0.00575 to 0.287 µM)	2 to 4 µg/mL (≈ 1.15 to 2.3 µM)	0.01 to 0.5 µg/mL (≈ 0.00575 to 0.287 µM)	0.01 to 0.5 µg/mL (≈ 0.00575 to 0.287 µM)	0.5 to 1 µg/mL (≈ 0.287 to 0.575 µM)	0.01 to 0.5 µg/mL (≈ 0.00575 to 0.287 µM)	8 to 16 µg/mL (≈ 4.6 to 9.2 µM)	0.01 to 0.5 µg/mL (≈ 0.00575 to 0.287 µM)						
CN[C@H](CC(C)C)C(=O)N[C@H]1C(=O)N[C@@H](CC(N)=O)C(=O)N[C@H]2C(=O)N[C@H]3C(=O)N[C@H](C(=O)N[C@H](C(=O)O)c4cc(O)cc(O)c4-c4cc3ccc4O)[C@H](O)c3ccc(c(Cl)c3)Oc3cc2cc(c3O[C@@H]2O[C@H](CO)[C@@H](O)[C@H](O)[C@H]2O[C@H]2C[C@](C)(N)[C@H](O)[C@H](C)O2)Oc2ccc(cc2Cl)[C@H]1O [Vancomycin, vancomycin, reference compound]	0.25 µg/mL (≈ 0.173 µM)	1 µg/mL (≈ 0.69 µM)	0.5 µg/mL (≈ 0.345 µM)	2 µg/mL (≈ 1.38 µM)		2 µg/mL (≈ 1.38 µM)	1 µg/mL (≈ 0.69 µM)		1 µg/mL (≈ 0.69 µM)			> 64 µg/mL	8 µg/mL (≈ 5.52 µM)	16 µg/mL (≈ 11 µM)	> 64 µg/mL	4 µg/mL (≈ 2.76 µM)	2 µg/mL (≈ 1.38 µM)
CCCCCCc1ccc(S(=O)(=O)NCCCCCNC(=O)Oc2cc(O)c3c(c2)[C@@H](C(=O)O)NC(=O)[C@H]2NC(=O)[C@H](NC(=O)[C@@H]4NC(=O)[C@H](CC(N)=O)NC(=O)[C@H](NC(=O)[C@@H](CC(C)C)NC)[C@H](O)c5ccc(c(Cl)c5)Oc5cc4cc(c5O[C@@H]4O[C@H](CO)[C@@H](O)[C@H](O)[C@H]4O[C@H]4C[C@](C)(N)[C@H](O)[C@H](C)O4)Oc4ccc(cc4Cl)[C@H]2O)c2ccc(O)c-3c2)cc1 (atropisomer, axis not shown) [Compound 350]	0.01 to 0.5 µg/mL (≈ 0.00555 to 0.278 µM)	0.01 to 0.5 µg/mL (≈ 0.00555 to 0.278 µM)	0.01 to 0.5 µg/mL (≈ 0.00555 to 0.278 µM)	0.01 to 0.5 µg/mL (≈ 0.00555 to 0.278 µM)	1 to 2 µg/mL (≈ 0.555 to 1.11 µM)	0.01 to 0.5 µg/mL (≈ 0.00555 to 0.278 µM)	0.01 to 0.5 µg/mL (≈ 0.00555 to 0.278 µM)	0.01 to 0.5 µg/mL (≈ 0.00555 to 0.278 µM)	0.01 to 0.5 µg/mL (≈ 0.00555 to 0.278 µM)	4 to 8 µg/mL (≈ 2.22 to 4.44 µM)	0.01 to 0.5 µg/mL (≈ 0.00555 to 0.278 µM)						
CCOCCOCCNC(=O)Oc1cc(O)c2c(c1)[C@@H](C(=O)O)NC(=O)[C@H]1NC(=O)[C@H](NC(=O)[C@@H]3NC(=O)[C@H](CC(N)=O)NC(=O)[C@H](NC(=O)[C@@H](CC(C)C)NC)[C@H](O)c4ccc(c(Cl)c4)Oc4cc3cc(c4O[C@@H]3O[C@H](CO)[C@@H](O)[C@H](O)[C@H]3O[C@H]3C[C@](C)(N)[C@H](O)[C@H](C)O3)Oc3ccc(cc3Cl)[C@H]1O)c1ccc(O)c-2c1 (atropisomer, axis not shown) [Compound 353]	0.01 to 0.5 µg/mL (≈ 0.00622 to 0.311 µM)	4 to 8 µg/mL (≈ 2.49 to 4.97 µM)	1 to 2 µg/mL (≈ 0.622 to 1.24 µM)	8 to 16 µg/mL (≈ 4.97 to 9.95 µM)	> 16 µg/mL	4 to 8 µg/mL (≈ 2.49 to 4.97 µM)	2 to 4 µg/mL (≈ 1.24 to 2.49 µM)	> 16 µg/mL	4 to 8 µg/mL (≈ 2.49 to 4.97 µM)	> 16 µg/mL	4 to 8 µg/mL (≈ 2.49 to 4.97 µM)						
